Experiment: Solubilities of pesticides in compounds of the formula (1)
Assay type: physicochemical
Protocol: The solubilities of various pesticides were determined in various compounds of the formula (1) at 25° C. All data are in % by weight (Table 1).

## CCCCOC(=O)C1CC(=O)N(C)C1 (centres unmarked) [example 3, N-Butyl N-Methyl-2-Pyrrolidone-4-Carboxylate]
  Solubility of Pendimethalin in the compound of the formula (1): 38.9 % by weight
  Solubility of Tebuconazole in the compound of the formula (1): 37.0 % by weight
  Solubility of Triadimefon in the compound of the formula (1): 43.0 % by weight
  Solubility of Trifloxystrobin in the compound of the formula (1): 30.1 % by weight
  Solubility of Trifluralin in the compound of the formula (1): 57.4 % by weight

Source: patent US20130217892A1, “Use Of N-Substituted 2-Pyrrolidone-4-Carboxylic Acid Esters And Solvents” (CLARIANT FINANCE (BVI) LIMITED, priority 2010, published 2013)
